Data as given in paper PMC10587169, “Tuning aminopolycarboxylate chelators for efficient complexation of trivalent actinides” (Scientific Reports, 2023).
Read-outs that look alike come from different tables or passages of the source. Marks after values point to notes of the source that are not given here.

What was measured:
[1] = Potentiometric titration, acid dissociation constants; type: physicochemical; conditions: aqueous 2.0 M (Na+/H+)ClO4 electrolyte solution
Procedure: All potentiometric titrations were run using a Mettler Toledo T90 autotitrator equipped with an Orion Ross Semi-micro glass electrode with the junction stabilization solution changed to 5.0 M NaCl to prevent precipitation with perchlorate media. All titrations were performed under a hydrated nitrogen atmosphere. The forward titration measurements (acidic titrand, basic titrant) of H4octapa in nitrate electrolyte medium were performed as described previously due to the limited solubility of this ligand in a 2 M (Na^+/H^+)ClO4 medium. Acid dissociation constants of H4octapa in perchlorate electrolyte medium were also determined by titrating in reverse (basic titrand, acidic titrant) to alleviate the solubility concerns. Titrations of H4pypa-peg were performed in reduced-volume glass titration cups (10 mL nominal) due to the limited supply of this ligand. All potentiometric titrations were run in triplicate. The choice of using p[H^+] was explained in Heathman et al.[15], and the calibration of the p[H^+] scale utilized Gran analysis through titration of a strong acid with the base used in the potentiometric titrations[29]–[31]. Potentiometric titration data was modeled and analyzed using Hyperquad2013 to determine acid dissociation and metal complexation stability constants[32],[33].
Changes in hydrogen ion concentration were monitored using a glass electrode for a solution of H4octapa as either NaOH or HClO4 were titrated into the solutions. […] The experimental potentiometric curve collected for a forward titration of H4octapa in (Na^+/H^+)NO3 is presented in Fig. 3A, alongside the distribution curves for the identified HnL species. Following those studies, the acid/base conditions were reversed and octapa^4− was titrated in 2.0 M (Na^+/H^+)ClO4 using HClO4 (SI Figure S7). The potentiometric curves are well respresented by five proton dissociation equilibria. The calculated equilibrium constants correspond with the protonation reactions for two aliphatic amines, two pyridine nitrogens, and one carboxylate group with the protonation sequence described by Eq. (2). The acid dissociation constants (pKa = − log10Ka) for H4octapa are reported in Table 1 alongside previously reported values in the literature.
The experimental potentiometric titration curve and the distribution curves for the associated HnL species for H4pypa-peg are presented in Fig. 3B. […] For comparison, the protonation equilibria of H4edta were also studied in 2.0 M (Na^+/H^+)ClO4. The pKa values for H4edta are listed in Table 2 and collected potentiometric titration curves (forward and reverse) are presented in SI Figure S8. For H4pypa-peg coordination pocket the protonation of H9L^5+, H7L^3+, and H6L^2+ cannot be characterized using a glass electrode. The H6L^2+ species likely represents a protonated carboxylate group, while H5L^+ and H4L may describe the pyridinecarboxylate nitrogens. The equilibrium involving H3L^− likely describes the dissociation of the protonated pyridine nitrogen, while the two most basic species in this ligand (HL^3− and H2L^2−) are likely the bridging amines in the H4pypa-peg backbone. Equation (3) describes the protonation sequence for H4pypa-peg.3 H10-aL^+6-a⇆H9-aL^+5-a+H^+Ka=H^+·H9-aL^+5-a/H10-aL^+6-aa=1…9

[2] = Spectrophotometric titration; type: binding; conditions: spectrophotometrically determined in 2.0 M (Na+/H+)ClO4, 20 °C
Source text: Changes in the optical absorption characteristics of Nd^3+ were monitored using a Cary 6000i UV/Vis–NIR Spectrometer (Agilent) using 1 cm semimicro quartz cuvettes (Starna) in double-beam mode, where the ^4I9/2 → ^4G5/2, ^2G7/2 transitions[34] were monitored between 560 and 605 nm with a 0.075 nm interval and 1.0 nm spectral bandwidth. Changes in the optical absorption characteristics of ^243Am^3+ and ^248Cm^3+ were monitored using a Flame-S-VIS–NIR-ES spectrometer coupled to a DH-2000-BAL dual-mode light source (Ocean Optics) with a single 1 cm semimicro quartz cuvette (Starna). The light source and spectrometer were optically coupled to the CUV sample (Ocean Optics) holder using 2 m fiberoptics (200 μm) and the parameters for acquisition were 0.369 nm interval and 1000 scans averaged with an integration time/scan 1.08 ms (total acquisition time ~ 1 s). The complexation of Am^3+ with the ligands was monitored in the 495–525 nm spectral region, looking at the ^7F0′ → ^5L6′ transition[23],[35]. For Cm^3+, ligand complexation was monitored in the 365–410 nm spectral region, looking at the ^8S7/2 → ^2Ji (i = {15}, {13,9}, {11,17}) manifold transitions[24],[25],[36]. Changes in aqueous p[H^+] were monitored throughout each titration step using a Gran-calibrated Orion Ross Semi-micro glass electrode. Baseline correction was applied to all datasets and was typically a simple linear subtraction. However, in the case of the ^248Cm/H4pypa-peg spectra, the tail end of the ligand absorption overlapped the hypersensitive Cm peaks. In this case the background correction was applied using a 5th-order empirical polynomial. Finally, the spectroscopic data was analyzed using the HypSpec software package[33],[37]. Full details of the titrand and titrant solutions for each titration are included in the Supplemental Information.
The coordination of Nd^3+ by H4octapa and H4pypa-peg was also studied using spectroscopic methods. Figures 5A, B show the collected spectrophotometric signatures for H4octapa and H4pypa-peg, respectively.4 M^3++L^4-⇆ML^-β101=ML^-/[M^3+]L^4- 5 M^3++H^++L^4-⇆MHLaqβ111=MHLaq/[M^3+L^4-H^+]
Optical absorption features of ^4I9/2 → ^4G5/2, ^2G7/2 transitions for Nd^3+ are perturbed due to the introduction of increasing quantities of complexants, resulting in characteristic red-shifted changes. In Fig. 5A a broad absorption band with λmax = 577 nm is distinctly different to the optical absorption of free Nd^3+ metal in Fig. 5B. The differences can be attributed to the nitrate complexation of Nd^3+ as the spectrophotometric titration with H4octapa was performed in 2.0 M (Na^+/H^+)NO3. […] The HypSpec interpretation of the Nd/pypa-peg titration points to the presence of three absorbing species: Nd^3+, NdHL(aq), and NdL^−. The conditional stability constants obtained spectroscopically are listed in Table 3, showing good agreement with the stability constants determined using potentiometry. The complex stability constants for structurally similar APC ligands found in the literature are also presented (H4pypa[18] and H4py4pa[57]).
2. Spectrophotometric titration parameters
Nd3+: The titrand solution consisting of 1.980 mL of 7.57 mM Nd(ClO4)3 at p[H+] = 1.61 was blended with 1.965 mL of titrant solution containing 7.62 mM Nd3+, 18.57 mM H4octapa, […]
Am3+: The titrand solution consisting of 0.842 mL of 0.810 mM Am(ClO4)3 at p[H+] =1.66 was blended with 0.811 mL of titrant solution containing 0.815 mM Am3+, 8.95 mM H4octapa, at p[H+] ≈ 5.0 – 6.0.
Nd3+: The titrand solution consisting of 0.801 mL of 9.82 mM Nd(ClO4)3 at p[H+] = 1.61 was blended with 1.176 mL of titrant solution containing 9.91 mM Nd3+ and 24.58 mM H4pypa-peg in with p[H+] ≈ 3.0 – 4.0.
Am3+: The titrand solution consisting of 0.806 mL of 0.791 mM Am(ClO4)3 at p[H+] = 1.41 was blended with 0.787 mL of titrant solution containing 0.801 mM Am3+ and 15.09 mM H4pypa-peg at p[H+] ≈ 5 – 6.
Cm3+: The titrand solution consist ing of 0.809 mL of 1.00 mM Cm(ClO4)3 at p[H+] = 1.34 was […]

[3] = Stability constants reported in literature; type: binding; conditions: across the lanthanide series
[4] = I = 0.16 M NaCl, uncertainties 1σ; cited from earlier work
[5] = cited from earlier work
[6] = cited from earlier work; remark: listed apart in the source
[7] = in-batch spectrophotometric competition at 25 °C, not evaluated at constant I = 0.16 M NaCl
[8] = potentiometric titrations, I = 0.16 M NaCl, uncertainties 1σ

## O=C(O)CN(CCN(CC(=O)O)CC(=O)O)CC(=O)O [H4edta, ethylenediamine-N,N,N′,N′-tetraacetic acid]
[1]; I = 2.0 M (Na+/H+)ClO4 (Table 2), read-out: pKa H2L2-
  pKa: 6.23
[1]; I = 2.0 M (Na+/H+)ClO4 (Table 2), read-out: pKa H3L-
  pKa: 2.48
[1]; I = 2.0 M (Na+/H+)ClO4 (Table 2), read-out: pKa H4L(aq)
  pKa: 2.08
[1]; I = 2.0 M (Na+/H+)ClO4 (Table 2), read-out: pKa HL3-
  pKa: 8.71
[1]; I = 2.0 M (Na+/H+)ClO4 at 20.0 °C, read-out: pKa H2L species
  pKa: 6.45
[1]; I = 2.0 M (Na+/H+)ClO4 at 20.0 °C, read-out: pKa H3L species
  pKa: 2.49
[1]; I = 2.0 M (Na+/H+)ClO4 at 20.0 °C, read-out: pKa H4L species
  pKa: 2.02
[1]; I = 2.0 M (Na+/H+)ClO4 at 20.0 °C, read-out: pKa HL species
  pKa: 8.81
[2]
  logβ101 (ML), Nd: 14.66(1)

## O=C(O)CN(Cc1cccc(CN(CC(=O)O)Cc2cccc(C(=O)O)n2)n1)Cc1cccc(C(=O)O)n1 [H4pypa]
[3]
  cross-lanthanide stability increase for ML- complexes: 1000 fold
[4]
  pKa H2L2-: 6.78 (1)
  pKa H3L-: 3.69 (1)
  pKa H4L(aq): 3.02 (1)
  pKa H5L+: 2.23 (2)
  pKa H6L2+: 2.06 (6)
  pKa H7L3+: 1.70 (2)
  pKa HL3-: 7.78 (1)
[5]; [7]
  logK111, La: 3.24 (5)*
[5]; [8]
  logβ101 (ML), La: 19.54 (2)
[6]; [7]
  logK111, Lu: 3.60 (6)*
[6]; [8]
  logβ101 (ML), Lu: 22.20 (2)
